Source: patent US20210255193A1, “LYSINE REACTIVE PROBES AND USES THEREOF” (The Scripps Research Institute, priority 2017, published 2021)

Tests used:
Assay in all cases: competitive isoTOP-ABPP
Type in all cases: binding
[1] = target: T1, MRPS24 28S ribosomal protein S24, mitochondrial (Homo sapiens, UniProt Q96EL2); conditions: for R value (DMSO/fragment) for probe 1 labeling: Q96EL2_K94; for R value (DMSO/fragment) for probe 1 labeling / isoTOP-ABPP reactivity ratio at lysine Q96EL2_K94 / isoTOP-ABPP ratio (R) at liganded lysine Q96EL2_K94: 50 uM, in vitro; for R value (DMSO/fragment) for probe 1 labeling / isoTOP-ABPP reactivity ratio at lysine Q96EL2_K94: 231 sol; for isoTOP-ABPP ratio (R) at liganded lysine Q96EL2_K94: sol, 231
T1 construct: isoTOP-ABPP experiments performed in cell lysates (in vitro); endogenous in cells; host or cells: soluble proteome of human cancer cell lines (MDA-MB-231; Ramos and Jurkat also prepared)
In short: (§1)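 Probe: STP-alkyne, 0.1 mM, 1 h RT, after fragment pretreatment of lysate (esters 50 μM; guanidinylators 100 μM). Tags: light = compound, heavy = DMSO, via CuAAC. Replicates averaged if SD <60% of mean; otherwise lowest ratio used when any R <4.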

[2] = target: T2, PFKM 6-phosphofructokinase, muscle type (Homo sapiens, UniProt P08237); conditions: for R value (DMSO/fragment) for probe 1 labeling: P08237_K678; for R value (DMSO/fragment) for probe 1 labeling / isoTOP-ABPP reactivity ratio at lysine P08237_K678 / isoTOP-ABPP ratio (R) at liganded lysine P08237_K678: 50 uM, in vitro; for R value (DMSO/fragment) for probe 1 labeling / isoTOP-ABPP reactivity ratio at lysine P08237_K678: 231 sol; for isoTOP-ABPP ratio (R) at liganded lysine P08237_K678: sol, 231; for isoTOP-ABPP ratio, lysine P08237_K678: 50 uM_231_sol_in vitro
T2 construct: isoTOP-ABPP experiments performed in cell lysates (in vitro); endogenous in cells; host or cells: MDA-MB-231 soluble lysate
T2 sequence (P08237 1-780): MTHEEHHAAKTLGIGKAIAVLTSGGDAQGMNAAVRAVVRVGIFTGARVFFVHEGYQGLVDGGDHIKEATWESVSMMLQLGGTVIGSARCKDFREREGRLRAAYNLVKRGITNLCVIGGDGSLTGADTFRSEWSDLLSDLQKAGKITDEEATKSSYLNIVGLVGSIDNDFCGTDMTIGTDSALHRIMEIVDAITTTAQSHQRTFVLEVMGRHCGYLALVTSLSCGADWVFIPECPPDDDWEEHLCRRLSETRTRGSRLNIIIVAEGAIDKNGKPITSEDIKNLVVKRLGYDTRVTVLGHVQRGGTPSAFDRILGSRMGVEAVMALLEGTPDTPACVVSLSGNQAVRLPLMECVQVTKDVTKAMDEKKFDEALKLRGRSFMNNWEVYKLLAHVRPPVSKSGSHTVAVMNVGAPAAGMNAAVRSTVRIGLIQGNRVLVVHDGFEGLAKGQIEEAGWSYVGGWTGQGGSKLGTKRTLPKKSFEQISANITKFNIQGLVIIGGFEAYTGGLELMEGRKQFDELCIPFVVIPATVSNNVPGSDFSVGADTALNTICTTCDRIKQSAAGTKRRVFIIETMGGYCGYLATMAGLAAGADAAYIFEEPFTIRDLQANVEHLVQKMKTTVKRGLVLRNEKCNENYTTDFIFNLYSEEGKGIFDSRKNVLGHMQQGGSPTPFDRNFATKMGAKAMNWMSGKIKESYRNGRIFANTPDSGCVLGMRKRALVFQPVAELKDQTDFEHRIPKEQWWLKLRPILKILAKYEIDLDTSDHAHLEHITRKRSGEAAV
In short: as §1

[3] = target: T3, TRMT10C Mitochondrial ribonuclease P protein 1 (Homo sapiens, UniProt Q7L0Y3); conditions: for R value (DMSO/fragment) for probe 1 labeling: Q7L0Y3_K325; for R value (DMSO/fragment) for probe 1 labeling / isoTOP-ABPP reactivity ratio at lysine Q7L0Y3_K325 / isoTOP-ABPP ratio (R) at liganded lysine Q7L0Y3_K325: 50 uM, in vitro; for R value (DMSO/fragment) for probe 1 labeling / isoTOP-ABPP reactivity ratio at lysine Q7L0Y3_K325: 231 sol; for isoTOP-ABPP ratio (R) at liganded lysine Q7L0Y3_K325: sol, 231; for isoTOP-ABPP ratio, lysine Q7L0Y3_K325: 50 uM_231_sol_in vitro
T3 construct: isoTOP-ABPP experiments performed in cell lysates (in vitro); endogenous in cells; host or cells: soluble proteome of human cancer cell lines (MDA-MB-231; Ramos and Jurkat also prepared)
T3 sequence (Q7L0Y3 40-403): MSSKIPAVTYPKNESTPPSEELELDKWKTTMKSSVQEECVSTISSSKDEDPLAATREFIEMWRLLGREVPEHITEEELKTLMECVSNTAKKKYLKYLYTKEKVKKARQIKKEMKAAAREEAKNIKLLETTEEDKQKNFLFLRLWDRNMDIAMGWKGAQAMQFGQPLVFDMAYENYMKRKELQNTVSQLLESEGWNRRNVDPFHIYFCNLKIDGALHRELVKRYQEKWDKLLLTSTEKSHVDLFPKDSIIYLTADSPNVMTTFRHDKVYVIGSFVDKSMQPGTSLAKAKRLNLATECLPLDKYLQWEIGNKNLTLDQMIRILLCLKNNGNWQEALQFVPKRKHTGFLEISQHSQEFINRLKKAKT
In short: as §1

SMILES: O=C(CCc1cn(-c2ccccc2)nc1-c1ccccc1)Oc1c(F)c(F)c(F)c(F)c1F [fragment 19, Pentafluorophenyl 3-(1,3-diphenyl-1H-pyrazol-4-yl)propanoate]
- R value (DMSO/fragment) for probe 1 labeling [1]: 1.4
- R value (DMSO/fragment) for probe 1 labeling [2]: 1.0

SMILES: O=C(Oc1c(F)c(F)c(F)c(F)c1F)C(c1ccccc1)c1ccccc1 [fragment 20, Pentafluorophenyl 2,2-diphenylacetate]
- R value (DMSO/fragment) for probe 1 labeling [1]: 0.9
- R value (DMSO/fragment) for probe 1 labeling [2]: 1.4
- R value (DMSO/fragment) for probe 1 labeling [3]: 1.1

SMILES: O=C(Oc1c(F)c(F)c(F)c(F)c1F)c1cc(C(F)(F)F)cc(C(F)(F)F)c1 [fragment 21, Pentafluorophenyl 3,5-bis(trifluoromethyl)benzoate]
- R value (DMSO/fragment) for probe 1 labeling [1]: 0.8
- R value (DMSO/fragment) for probe 1 labeling [2]: 0.9
- R value (DMSO/fragment) for probe 1 labeling [3]: 0.9

SMILES: Cn1cc(CC(=O)Oc2c(F)c(F)c(F)c(F)c2F)c2ccccc21 [fragment 22, Pentafluorophenyl 2-(1-methyl-1H-indol-3-yl)acetate]
- R value (DMSO/fragment) for probe 1 labeling [1]: 1.6
- R value (DMSO/fragment) for probe 1 labeling [2]: 1.1
- R value (DMSO/fragment) for probe 1 labeling [3]: 1.1

SMILES: COc1cc(CCC(=O)Oc2c(F)c(F)c(F)c(F)c2F)cc(OC)c1OC [fragment 23, Pentafluorophenyl 3-(3,4,5-trimethoxyphenyl)propanoate]
- R value (DMSO/fragment) for probe 1 labeling [1]: 2.1
- R value (DMSO/fragment) for probe 1 labeling [2]: 1.0
- R value (DMSO/fragment) for probe 1 labeling [3]: 1.3

SMILES: O=C(Oc1c(F)c(F)c(F)c(F)c1F)C1CCN(C(=O)OCc2ccccc2)CC1 [fragment 24, 1-Benzyl 4-(pentafluorophenyl) piperidine-1,4-dicarboxylate]
- isoTOP-ABPP reactivity ratio at lysine Q96EL2_K94 [1]: 1.5
- isoTOP-ABPP reactivity ratio at lysine P08237_K678 [2]: 1.1
- isoTOP-ABPP reactivity ratio at lysine Q7L0Y3_K325 [3]: 1.4

SMILES: O=C(Oc1c(F)c(F)c(F)c(F)c1F)c1ccc2ccccc2n1 [fragment 25, Pentafluorophenyl quinoline-2-carboxylate]
- isoTOP-ABPP reactivity ratio at lysine Q96EL2_K94 [1]: 1.3
- isoTOP-ABPP reactivity ratio at lysine P08237_K678 [2]: 1.3
- isoTOP-ABPP reactivity ratio at lysine Q7L0Y3_K325 [3]: 1.1

SMILES: O=C(CCc1coc2cc(F)ccc2c1=O)Oc1c(F)c(F)c(F)c(F)c1F [fragment 26, Pentafluorophenyl 3-(7-fluoro-4-oxo-4H-chromen-3-yl)propanoate]
- isoTOP-ABPP reactivity ratio at lysine Q96EL2_K94 [1]: 2.7
- isoTOP-ABPP reactivity ratio at lysine P08237_K678 [2]: 1.4

SMILES: O=C(CN1C(=O)c2ccccc2C1=O)Oc1c(F)c(F)c(F)c(F)c1F [fragment 27, Pentafluorophenyl 2-(1,3-dioxoisoindolin-2-yl)acetate]
- isoTOP-ABPP reactivity ratio at lysine Q96EL2_K94 [1]: 2.0
- isoTOP-ABPP reactivity ratio at lysine P08237_K678 [2]: 2.6

SMILES: CCn1cc(C(=O)Oc2c(F)c(F)c(F)c(F)c2F)c(=O)c2ccc(C)nc21 [fragment 28, Pentafluorophenyl 1-ethyl-7-methyl-4-oxo-1,4-dihydro-1,8-naphthyridine-3-carboxylate]
- isoTOP-ABPP reactivity ratio at lysine Q96EL2_K94 [1]: 1.0
- isoTOP-ABPP reactivity ratio at lysine P08237_K678 [2]: 1.3

SMILES: O=C(CCc1cn(-c2ccccc2)nc1-c1ccccc1)Oc1ccc([N+](=O)[O-])cc1[N+](=O)[O-] [fragment 29, 2,4-Dinitrophenyl 3-(1,3-diphenyl-1H-pyrazol-4-yl)propanoate]
- isoTOP-ABPP reactivity ratio at lysine Q96EL2_K94 [1]: 2.2
- isoTOP-ABPP reactivity ratio at lysine P08237_K678 [2]: 1.8
- isoTOP-ABPP reactivity ratio at lysine Q7L0Y3_K325 [3]: 0.7

SMILES: O=C(Oc1ccc([N+](=O)[O-])cc1[N+](=O)[O-])C(c1ccccc1)c1ccccc1 [fragment 30, 2,4-Dinitrophenyl 2,2-diphenylacetate]
- isoTOP-ABPP reactivity ratio at lysine P08237_K678 [2]: 20.0
- isoTOP-ABPP reactivity ratio at lysine Q7L0Y3_K325 [3]: 1.1

SMILES: O=C(Oc1ccc([N+](=O)[O-])cc1[N+](=O)[O-])c1cc(C(F)(F)F)cc(C(F)(F)F)c1 [fragment 31, 2,4-Dinitrophenyl 3,5-bis(trifluoromethyl)benzoate]
- isoTOP-ABPP reactivity ratio at lysine Q96EL2_K94 [1]: 1.6
- isoTOP-ABPP reactivity ratio at lysine P08237_K678 [2]: 1.1
- isoTOP-ABPP reactivity ratio at lysine Q7L0Y3_K325 [3]: 1.1

SMILES: Cn1cc(CC(=O)Oc2ccc([N+](=O)[O-])cc2[N+](=O)[O-])c2ccccc21 [fragment 32, 2,4-Dinitrophenyl 2-(1-methyl-1H-indol-3-yl)acetate]
- isoTOP-ABPP reactivity ratio at lysine Q96EL2_K94 [1]: 5.1
- isoTOP-ABPP reactivity ratio at lysine P08237_K678 [2]: 15.4
- isoTOP-ABPP reactivity ratio at lysine Q7L0Y3_K325 [3]: 1.0

SMILES: COc1cc(CCC(=O)Oc2ccc([N+](=O)[O-])cc2[N+](=O)[O-])cc(OC)c1OC [fragment 33, 2,4-Dinitrophenyl 3-(3,4,5-trimethoxyphenyl)propanoate]
- isoTOP-ABPP reactivity ratio at lysine Q96EL2_K94 [1]: 1.4
- isoTOP-ABPP reactivity ratio at lysine P08237_K678 [2]: 4.0
- isoTOP-ABPP reactivity ratio at lysine Q7L0Y3_K325 [3]: 0.9

SMILES: O=C(Oc1ccc([N+](=O)[O-])cc1[N+](=O)[O-])C1CCN(C(=O)OCc2ccccc2)CC1 [fragment 34, 1-Benzyl 4-(2,4-dinitrophenyl) piperidine-1,4-dicarboxylate]
- isoTOP-ABPP ratio (R) at liganded lysine Q96EL2_K94 [1]: 1.4
- isoTOP-ABPP ratio (R) at liganded lysine P08237_K678 [2]: 1.1
- isoTOP-ABPP ratio (R) at liganded lysine Q7L0Y3_K325 [3]: 1.0

SMILES: O=C(Oc1ccc([N+](=O)[O-])cc1[N+](=O)[O-])c1ccc2ccccc2n1 [fragment 35, 2,4-Dinitrophenyl quinoline-2-carboxylate]
- isoTOP-ABPP ratio (R) at liganded lysine Q96EL2_K94 [1]: 1.3
- isoTOP-ABPP ratio (R) at liganded lysine P08237_K678 [2]: 1.2
- isoTOP-ABPP ratio (R) at liganded lysine Q7L0Y3_K325 [3]: 1.0

SMILES: O=C(CCc1coc2cc(F)ccc2c1=O)Oc1ccc([N+](=O)[O-])cc1[N+](=O)[O-] [fragment 36, 2,4-Dinitrophenyl 3-(7-fluoro-4-oxo-4H-chromen-3-yl)propanoate]
- isoTOP-ABPP ratio (R) at liganded lysine Q96EL2_K94 [1]: 2.8
- isoTOP-ABPP ratio (R) at liganded lysine P08237_K678 [2]: 5.3

SMILES: O=C(Oc1ccc([N+](=O)[O-])cc1[N+](=O)[O-])c1ccccc1Nc1cccc(C(F)(F)F)c1 [fragment 40, 2,4-Dinitrophenyl 2-((3-(trifluoromethyl)phenyl)amino)benzoate]
- isoTOP-ABPP ratio (R) at liganded lysine P08237_K678 [2]: 0.9
- isoTOP-ABPP ratio (R) at liganded lysine Q7L0Y3_K325 [3]: 0.9

SMILES: O=C(CCc1ccc2c(c1)OCO2)Oc1ccc([N+](=O)[O-])cc1[N+](=O)[O-] [fragment 45, 2,4-Dinitrophenyl 3-(benzo[d][1,3]dioxol-5-yl)propanoate]
- isoTOP-ABPP ratio, lysine P08237_K678 [2]: 4.8
- isoTOP-ABPP ratio, lysine Q7L0Y3_K325 [3]: 1.0

SMILES: O=C(Oc1c(F)c(F)c(C(F)(F)F)c(F)c1F)c1cc(C(F)(F)F)cc(C(F)(F)F)c1 [fragment 47, 2,3,5,6-Tetrafluoro-4-(trifluoromethyl)phenyl 3,5-bis(trifluoromethyl)benzoate]
- isoTOP-ABPP ratio, lysine P08237_K678 [2]: 0.8
- isoTOP-ABPP ratio, lysine Q7L0Y3_K325 [3]: 1.1

SMILES: O=C(Oc1c(F)c(F)cc(F)c1F)c1cc(C(F)(F)F)cc(C(F)(F)F)c1 [fragment 48, 2,3,5,6-Tetrafluorophenyl 3,5-bis(trifluoromethyl)benzoate]
- isoTOP-ABPP ratio, lysine Q96EL2_K94 ([1]; 50 uM_231_sol_in vitro): 1.0
- isoTOP-ABPP ratio, lysine P08237_K678 [2]: 0.9
